In patent publication US7060681B2, “Compositions and methods for use of bioactive agents derived from sulfated and sulfonated amino acids” (Ecole Polytechnique Federale de Lausanne (EPFL), priority 2001, dated 2006):
Ends that are not written are not given here. * marks the point of attachment. SO3 = sulfate on the tyrosine hydroxyl group, O=S(=O)(O)*

Columns and labels:
[1] = target: T1, VEGF (Homo sapiens, UniProt P15692); experiment: Dissociation constant (KD) by surface plasma resonance (SPR); type: binding; settings: ± standard deviation
T1 sequence (P15692 27-191 isoform P15692-4): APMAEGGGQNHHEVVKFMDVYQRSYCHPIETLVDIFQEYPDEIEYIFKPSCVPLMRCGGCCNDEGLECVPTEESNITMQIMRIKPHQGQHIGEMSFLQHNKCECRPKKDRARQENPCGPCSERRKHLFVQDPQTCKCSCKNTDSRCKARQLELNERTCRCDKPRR
Excerpt: The sequence from the highest ranked bead from the first library of Example 1, was synthesized as SY(SO3)DY(SO3)G (SEE SEQ ID NO: 17), and the peptide Y(SO3)Y(SO3)GGY(SO3)DY(SO3) (SEE SEQ ID NO: 14) from the library of this Example were both synthesized independently and the dissociation constant (KD) determined by surface plasma resonance (SPR). The peptides were compared to suramin, a known heparin mimic that inhibits angiogenesis. […] Using SPR, there was no detectible binding of the analogous desulfated peptides to VEGF.

[2] = target: T2, VEGF165 (Homo sapiens, UniProt P15692); experiment: Colorimetric competitive bead assay with biotinylated VEGF165 in presence of heparin; type: binding; settings: about 0.25 nM biotinylated VEGF165; 1 or 10 equivalents of heparin
T2 construct: made in house; host or cells: E. coli AD494 (DE3)pLysS
T2 sequence (P15692 27-191 isoform P15692-4): T1 sequence (P15692 27-191 isoform P15692-4)
Procedure: A colorimetric assay was used to screen the library. The assay employed two different precipitating, developing dyes. In this way, beads that bound VEGF165 selectively and through the sulfate functionality could be determined. A portion of the library (2–3 copies) was swelled with H2O and rinsed 3 times with TBS. The resin was subjected overnight to 0.1% albumin and 0.2% Tween in Tris buffered saline (TBS, blocking buffer) and then rinsed with TBS (2×) prior to adding 1 mL streptavidin alkaline phosphatase (diluted 1:1000 from a 1 mg/mL solution) and shaking for 2 hours. The resin was rinsed with TBS (5×) and 200 μL of 5-bromo-4-chloro-3-indoylphosphate p-toluidine salt/nitro blue tetrazolium chloride (BCIP/NBT) reagent was added to develop a blue/black color where the streptavidin alkaline phosphatase was present. Nonspecific adsorption of the streptavidin alkaline phosphatase was detected as blue/black stained beads. After 15 minutes, the resin was rinsed with TBS (5×) prior to adding 100 μL of about 0.25 nM of biotinylated VEGF165 in the presence or absence of 1 or 10 equivalents of heparin sodium salt (isolated from porcine intestinal mucosa) in 400 μL of blocking buffer. The mixture was shaken overnight, the solution removed, the resin washed with TBS (6×), and 1 mL streptavidin alkaline phosphatase (diluted 1:1000 from a 1 mg/mL solution) was added. […]

Molecule | Kd [1] | Binding of VEGF165 to peptide bead in the presence of heparin (in words) [2]
Cc1ccc(C(=O)Nc2ccc(S(=O)(=O)O)c3cc(S(=O)(=O)O)cc(S(=O)(=O)O)c23)cc1NC(=O)c1cccc(NC(=O)Nc2cccc(C(=O)Nc3cc(C(=O)Nc4ccc(S(=O)(=O)O)c5cc(S(=O)(=O)O)cc(S(=O)(=O)O)c45)ccc3C)c2)c1 [Suramin, suramin] | 340 µM | 
Y(SO3)Y(SO3)GGY(SO3)DY(SO3) (not fully specified (N-terminus); printed as Y(SO3)Y(SO3)GGY(SO3)DY(SO3)) |  | bound
